Results on three compounds are retold here after patent publication EP4154876B1, “CBX7 INHIBITOR FOR USE IN THE TREATMENT AND/OR PREVENTION OF A BLOOD VESSEL DISORDER” (Universität Potsdam, priority 2021, dated 2023).

pKd: −log10 of the molar value. Where a SMILES comes first, the peptide text is derived from it. [ ]: non-standard residue; d: D form. The star is where a group is joined. Benzoyl(4-tBu) = CC(C)(C)c1ccc(C(=O)*)cc1; Lys(Et2) = CCN(CC)CCCC[C@H](N)C(=O)O

One assay has as its system ccm2 mutants. Description: Pharmacological treatment of zebrafish ccm2 mutants (CCM disease model). Type of assay: in vivo. The conditions noted are these: for posterior caudal vein plexus: ccm2 mutants after treatment with inhibitor, Fig. 4A right column; for heart phenotype (strongly enlarged and ballooning heart): ccm2 mutants treated with inhibitor, Fig. 4A left column. How it is done:
In ccm2 mutants the heart is strongly enlarged and ballooning. In ccm2 mutants treated with MS37452 or MS351, this phenotype is suppressed and is reminiscent of wild type. Similarly, the posterior caudal vein plexus in ccm2 mutants is fenestrated after treatment with the inhibitors. Quantifications of these phenotype classes are in B). To elucidate whether a pharmacological suppression of Cbx7a has the same effect on the zebrafish CCM model, specific small compound inhibitors of CBX7 were tested (MS37452 and MS351). Both inhibitors block the binding of CBX7 to histone modifications on genomic DNA and suppress the epigenetic function of this protein within the Polycomb repressive complex (PRC1) (Fig. 3). Both inhibitors suppress the expression of the CCM phenotype in zebrafish disease models (Fig. 4). The effects of both inhibitors are reminiscent of the genetic knockout of cbx7a in ccm2 mutants. Heart phenotypes is shown in Fig. 4A left column while the region of the posterior caudal vein plexus in Fig. 4A right column. In ccm2 mutants the heart is strongly enlarged and ballooning. In ccm2 mutants treated with MS37452 or MS351, this phenotype is suppressed and is reminiscent of wild type. Similarly, the posterior caudal vein plexus in ccm2 mutants is fenestrated after treatment with the inhibitors. Quantifications of these phenotype classes are shown Fig. 4B. The y-axis represents the ratio of the amounts of embryos with suppressed ballooning heart and abnormal caudal vein plexus phenotype to the amounts of embryos with ballooning heart and abnormal caudal vein plexus phenotype.

The target in another assay is T1, CBX7ChD (Homo sapiens, UniProt O95931).
T1 sequence (O95931 11-69 limits assumed): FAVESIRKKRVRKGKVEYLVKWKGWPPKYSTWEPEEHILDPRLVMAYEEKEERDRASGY
The conditions noted are these: estimated; determined by NMR titration; CBX7ChD alone; cited from earlier work.

In assay [1] the test system is ChDs from other CBX proteins including CBX1/3/5 (HP1β/γ/α) and CBX2/4/6/8. Particulars: cited from earlier work.
The next assay addresses T2, chromodomains of CBX7 (Homo sapiens, UniProt O95931).
T2 sequence (O95931 11-69 limits assumed): T1 sequence (O95931 11-69 limits assumed)
Particulars: CBX7 chromodomain; cited from earlier work.

Turning to `Cc1ccccc1Cn1c(=N)n(CC(O)c2ccc(Cl)c(Cl)c2)c2ccccc21.Cl` (stereo not shown) [MS351], in the assay on ccm2 mutants, the “posterior caudal vein plexus” value is “fenestrated”; the “heart phenotype (strongly enlarged and ballooning heart)” value is reported as “suppressed”. Besides, the negative-log Kd (pKd) at CBX7ChD is around 3.30. The “binding to ChDs from other CBX proteins” value in assay [1] was “does not bind”.
With `COc1cccc(C(=O)N2CCN(C(=O)COc3cccc(C)c3)CC2)c1OC` [MS37452], in the assay on ccm2 mutants, the “posterior caudal vein plexus” value was “fenestrated”; the “heart phenotype (strongly enlarged and ballooning heart)” value is recorded as “suppressed”.
Take `CCN(CC)CCCC[C@H](NC(=O)[C@H](CC(C)C)NC(=O)[C@H](C)NC(=O)[C@H](Cc1ccccc1)NC(=O)c1ccc(C(C)(C)C)cc1)C(=O)N[C@@H](CO)C(=O)OC` [UNC3866] ({Benzoyl(4-tBu)}-FAL[Lys(Et2)]S-OMe): on chromodomains of CBX7, the negative-log Kd (pKd) is around 7.00.
